Where two headings read alike, the source gives them in different places.
Assays:
[1] = molecular target: subtilisin; conditions: inhibitor of subtilisin, read-out: inhibition constant (KI), cited from earlier work
[2] = test system: subtilisin; assay: Example 1: incubation of subtilisin with or without PBA at pH 7.5 and 37 degrees, activity measured after 1:500 dilution (succinyl-L-Ala-L-Ala-L-Pro-L-Phe-p-nitroanilide hydrolysis, 410 nm); format: biochemical; conditions: pH 7.5, 37 degrees celsius, even in the presence of 10 mm EDTA
Procedure: Enzyme activity was measured after a 1:500 dilution by following the hydrolysis of the substrate succinyl-L-Ala-L-Ala-L-Pro-L-Phe-P-nitroanilide. The reaction was monitored by following the release of p-nitroaniline spectrophotometrically at 410 nm. One unit of activity is defined as the amount of enzyme that produces A410/min of 1.0 at 25'C. in 0.1M Tris pH 8.6, […] substrate.

Row | Compound | Ki [1] | Ki ([1]; listed as Phenyl boronic acid) | stabilization of subtilisin (in words) [2] | Ki ([1]; listed as Leupeptin)
1 | CCCCB(O)O [butane boronic acid] | 7200 µM | – | – | –
2 | OB(O)c1ccccc1 [phenylboronic acid] | 230 µM | 160 µM | very effective agent for stabilization of subtilisin | –
3 | CC(=O)N[C@@H](CC(C)C)C(=O)N[C@@H](CC(C)C)C(=O)N[C@H](C=O)CCCNC(=N)N [leupeptin] | 160 µM | – | – | 230 µM

Reference: US5039446A, “Liquid detergent with stabilized enzyme” (Genencor International, Inc., priority 1990, dated 1991)
